By Ki is commonly meant a measure of affinity in units of concentration, obtained from inhibition or displacement. Broadly, the logP is a log measure of how a compound divides between an organic and an aqueous phase.

Here are results for two compounds from publication PMC8911752, “The Synthesis and Initial Evaluation of MerTK Targeted PET Agents” (Molecules, 2022).

Data set [1] deals with T1, MerTK (Homo sapiens, UniProt Q12866).
T1 sequence (Q12866 21-999): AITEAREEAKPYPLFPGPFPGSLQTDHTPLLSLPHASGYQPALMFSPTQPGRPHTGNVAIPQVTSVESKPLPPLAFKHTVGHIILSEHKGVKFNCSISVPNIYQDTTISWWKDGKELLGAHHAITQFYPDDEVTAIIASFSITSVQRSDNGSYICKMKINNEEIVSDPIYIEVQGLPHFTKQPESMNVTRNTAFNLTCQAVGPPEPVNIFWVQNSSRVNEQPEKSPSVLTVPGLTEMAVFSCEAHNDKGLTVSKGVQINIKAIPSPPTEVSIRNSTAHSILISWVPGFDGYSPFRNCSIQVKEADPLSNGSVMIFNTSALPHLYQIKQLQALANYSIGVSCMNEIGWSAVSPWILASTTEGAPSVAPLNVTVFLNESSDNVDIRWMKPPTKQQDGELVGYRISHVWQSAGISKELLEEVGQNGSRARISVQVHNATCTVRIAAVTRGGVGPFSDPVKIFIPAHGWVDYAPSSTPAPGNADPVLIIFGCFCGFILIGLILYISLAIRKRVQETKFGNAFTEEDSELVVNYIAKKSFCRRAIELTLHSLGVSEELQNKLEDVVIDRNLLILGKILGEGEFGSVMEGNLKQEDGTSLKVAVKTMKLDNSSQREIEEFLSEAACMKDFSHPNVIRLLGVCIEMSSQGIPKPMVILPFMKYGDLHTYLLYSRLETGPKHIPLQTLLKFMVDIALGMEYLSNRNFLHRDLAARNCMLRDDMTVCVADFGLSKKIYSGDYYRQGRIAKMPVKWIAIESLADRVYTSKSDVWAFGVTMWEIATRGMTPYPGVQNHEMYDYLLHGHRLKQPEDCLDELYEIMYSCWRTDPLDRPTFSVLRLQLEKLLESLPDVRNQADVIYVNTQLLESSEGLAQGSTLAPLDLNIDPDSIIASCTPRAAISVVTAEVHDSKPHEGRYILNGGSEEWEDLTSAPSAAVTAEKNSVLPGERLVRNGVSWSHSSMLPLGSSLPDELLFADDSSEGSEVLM
On the set-up: method as in PMID 34038857. As to conditions: read-out: Ki against MerTK; cited from earlier work.

For data set [2], the system named is kinome. More on the design: method as in PMID 34038857. Particulars: at 100 nM, against the kinome; cited from earlier work.
Data set [3] deals with B16F10 tumor-bearing mice. The data set is described as follows: PET imaging in B16F10 tumor-bearing mice. It counts as in vivo. Particulars: for uptake in kidney / uptake in liver / uptake in muscle / uptake in tumor: i.v., PET ROI, n = 3. On the procedure:
Evaluation of the PET agent [^18F]-MerTK-6 was performed on B16F10 tumor-bearing mice. At 30 min post-injection (p.i), the uptake in tumor, liver, kidney, and muscle was 4.65 ± 1.25, 14.79 ± 0.99, 10.42 ± 1.01, and 2.51 ± 0.48%ID/g, respectively. The uptake at 2 h p.i. was 4.79 ± 0.24, 9.72 ± 1.56, 5.34 ± 1.25, and 1.55 ± 0.23%ID/g, respectively. Overall, the tumor uptake was maintained at ~5%ID/g and the tumor to muscle contrast increased to 3.09 at 2 h p.i, compared with 1.86 at 0.5 h p.i.
All animal studies were reviewed and approved by The University of North Carolina at Chapel Hill Institutional Animal Care and Use Committee. The B16F10 tumor cell was obtained from the LCCC tissue culture facility (the University of North Carolina at Chapel Hill, Chapel Hill, NC, USA). The B16F10 tumor-bearing […] mouse model was prepared as described previously. Briefly, B16/F10 cells were subcutaneously injected on the right flank of C57BL/6 female mice (Jackson Laboratory). The tumor volume was measured daily. When the tumor size reached 100 mm^3, the mice were used for PET imaging studies.
B16F10 tumor-bearing mice (n = 3/group) were intravenously injected via the tail vein with tracers. At 30 min and 120 min post-injection, a 10-min static emission scan was acquired with a SuperArgus small-animal PET/CT scanner. The regions of interests (ROIs) were drawn over the tumor and other organs and calculated as %ID/g. The mean uptake and standard deviation were calculated.

Data set [4] can be described thus: 1-octanol/water partition coefficient (LogP) by gamma counting. The format is physicochemical. Particulars: pH 7.4, sample pH around 7.4, n = 3, mean ± SD. Here is the method:
In order to evaluate the hydrophilicity and lipophilicity of this fluorine-18 labeled agent [^18F]-MerTK-6, we measured the 1-octanol/water partition coefficient (LogP) of [^18F]-MerTK-6. The resulting fractions were counted using a gamma counter. The reaction was repeated three times.
The LogP value of the [^18F]-MerTK-6 was calculated by the gamma particle counts of samples in the aqueous phase or 1-octanol phase by Automatic Gamma Counter 2480-0010 (PerkinElmer Instruments Inc., Waltham, MA, USA).
The [^18F]-MerTK-6 was collected after HPLC purification. After reformulation (pH value around 7.4), 20 µL [^18F]-MerTK-6 sample in saline was added to the mixture of 1 mL Mili-Q® water and 1 mL 1-octanol in a 5 mL Eppendorf tube. The tube was shacked thoroughly and then let stand still for 5 min. Then the 100 µL 1-octanol phase and 100 µL aqueous phase were subjected to a gamma counter separately and the gamma counts were recorded (n = 3). The LogP value was then calculated and expressed as a mean value± standard derivation.

For the compound `CCC[C@H](C)Nc1ncc2c(C3CCN(C(=O)c4cc(C)nc(C)c4)CC3)cn(C3CCC(O)CC3)c2n1` (some centres unmarked) [UNC5293], in data set [1], the inhibitory constant (Ki) is 0.19 nM. In addition, in data set [2], the “Ambit selectivity score S50” value is recorded as 0.041.
Regarding `C[C@H](Nc1ncc2c(C3CCN(CC[18F])CC3)cn([C@H]3CC[C@H](O)CC3)c2n1)c1ccccc1` [[^18F]-MerTK-6], the “tumor to muscle ratio” value in data set [3] (0.5 h post-injection) came out at 1.86. In data set [3] (30 min post-injection), this compound gave an uptake in kidney of 10.42 ± 1.01 %ID/g, an uptake in liver of 14.79 ± 0.99 %ID/g, an uptake in muscle of 2.51 ± 0.48 %ID/g and an uptake in tumor of 4.65 ± 1.25 %ID/g. Also, in data set [3] (2 h post-injection), the “tumor to muscle ratio” value was 3.09, the uptake in kidney stood at 5.34 ± 1.25 %ID/g, the uptake in liver was 9.72 ± 1.56 %ID/g and the uptake in muscle came to 1.55 ± 0.23 %ID/g. The same compound displayed an uptake in tumor in data set [3] (2 h post-injection) of 4.79 ± 0.24 %ID/g. Also, the “tumor uptake (overall, maintained)” value in data set [3] (overall, 0.5 h to 2 h post-injection) was ~ 5 %ID/g. Also, the lipophilicity (logP) in data set [4] came out at 1.56 ± 0.02.
